The record followed here is publication PMC2785710 (Bioorganic & medicinal chemistry letters, 2009).

A short description of the series: in vitro metabolic stability in pooled mouse liver microsomes. In kind it is in vitro ADME. To be noted: for half-life: t1/2, mouse liver microsomes. On the technique in general: Microsomes from liver hold many membrane-bound enzymes, among them those of drug oxidation.

Each structure is given as a SMILES string.

Broadly, the microsomal CLint is a measure of how fast metabolising enzymes remove a compound, apart from limits set by blood flow. A higher microsomal CLint goes with faster metabolism. As a reminder, the half-life is the time needed for the level to fall by half in the phase considered. Regarding `O=C(Nc1ccccc1Cl)c1cnc2ccc(N3CCCCC3)cn12` [Compound 71], the microsomal CLint stood at 71 ± 2 µL/min/mg and the half-life is 20 min.

Regarding `O=C(Nc1ccccc1Cl)c1cnn2ccc(-c3ccccc3)cc12` [Compound 54], the microsomal CLint turned out to be 51 ± 2.1 µL/min/mg and the half-life amounted to 27 min.

For `O=C(Nc1ccccc1Cl)c1cnc2ccccn12` [Compound 69], the microsomal CLint came to 361 ± 64 µL/min/mg and the half-life turned out to be 3.8 min.

Turning to `O=C(Nc1ccccc1Cl)c1cnc2ccc(-c3ccccc3)cn12` [Compound 70], the intrinsic clearance (microsomal CLint) was 26 ± 0.8 µL/min/mg and the half-life amounted to 53 min.

The molecule `O=C(Nc1ccccc1Cl)c1cnc2ccc(C3CCNCC3)cn12.O=C(O)C(=O)O` [Compound 32] displayed a half-life of 348 min.

Turning to `O=C(Nc1ccccc1Cl)c1cnn2ccc(N3CCCCC3)cc12` [Compound 58], the microsomal CLint came to 167 ± 4.2 µL/min/mg and the half-life was determined as 8.3 min.
